Data taken from patent US4183931A, “2-Ketoalkyl-4(3H)-quinazolinones” (Research Corporation, priority 1977, dated 1980).

Key:
[1] = Neuropharmacological Profile (NPP): general CNS observational screen (depression, righting reflex, ataxia)
[2] = NINCDS rotorod ataxia test (minimal neurotoxicity); assay type: in vivo, mice; settings: mouse, in vivo, ip; secondary evaluation, at time of peak effect
Protocol: 1. Neurological Activity Tests. The biological testing program is designed to evaluate the following four aspects of drug action: (1) the existence and specificity of anticonvulsant activity; (2) the toxicity, particularly to the central nervous system; and, if the results of (1) and (2) are favorable, (3) the potency and protective index, a comparison between toxic and effective dose and (4) the time course of activity. Compounds were evaluated for anticonvulsant activity in two seizure models, the maximal electroshock seizure (MES) test and the subcutaneous pentylenetetrazol (Metrazol) seizure threshold (scMet) test.
Central nervous system toxicity was evaluated in the rotorod ataxia test. This test is designed to detect minimal neurotoxicity. The animal is placed on a 1-inch diameter knurled plastic rod rotating at 6 rpm. Normal mice can remain indefinitely on a rod rotating at this speed. Neurological deficit is defined as the failure of the animal to remain on the rod for at least 1 minute. This test has a clear end-point, is quantifiable and correlates well with the clinical assessment of minimal toxicity.
Specific anticonvulsant evaluations performed by NINCDS using MES, scMet and Rotorod assays are presented in Tables III & IV for fourteen new compounds as well as several known compounds. Table III centers attention on 2-substituted-3-o-tolyl-4-(3H)-quinazolinones while Table IV includes the findings for various other 2,3-disubstituted-4(3H)-quinazolinones. As described earlier, the MES, scMet and Rotorod tests were performed one-half hour and four hours after administration of each compound. The tables identify the dosage level that elicited a positive result, such as protection against MES and scMet induced seizures, or loss of balance on the rotorod.
In the Secondary Evaluation, median effective doses (ED50) are determined in the MES, scMet and Rotorod assays using the procedures defined in Pharmacology, 95, 99-113 (1949). In addition, each compound's anticonvulsant activity and neurotoxicity over time are determined by measuring the effect of an intraperitoneally administered estimated median effective dose on maximal electroshock seizures and rotorod performance at intervals of 1/2, 1, 2, 3, 4, 6 and 8 hours.
Separate groups of animals are used for each time period. The times of peak toxic and anticonvulsant effect are taken from the resulting graph of percent of animals responding vs. time, and the determinations of median effective doses are performed at those times.

[3] = at 100 mg/kg, i.p., mice, score 0-8

## O=C(Cc1nc2ccccc2c(=O)n1-c1ccccc1Cl)c1ccncc1 [IVd, 2-[2-Oxo-2-(4-pyridyl)ethyl]-3-o-chlorophenyl-4(3H)-quinazolinone]
[1]; NPP summary
  behavioral activity compared with methaqualone: approaches that of methaqualone
[1]; at 10 mg/kg, i.p., mice, score 0-8
  Depression: 2
[1]; at 30 mg/kg (value in parentheses), i.p., mice, score 0-8
  CNS Depression: 2
[1]; [3]
  Ataxia: 6
  CNS Depression: 6
  Righting reflex: 8
[2]
  TD50: 137 mg/kg
